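Following 48 hours of exposure in 96-well plates, responses at five concentrations were used to interpolate endpoints linearly. GI50 is the concentration that inhibits growth by half.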 The source made the active and inactive calls. No stated cut-off is given here; in the data, active = GI50 up to about 1.1 µM and inactive = higher.
What was measured:
Test in all cases: NCI anticancer screen, dose series, 48 h
T47D = tested on: T47D
Malme-3M = tested on: Malme-3M
786-0 = tested on: 786-0
Hs-578T = tested on: Hs-578T
BT-549 = tested on: BT-549
HCT-15 = tested on: HCT-15
RXF 393 = tested on: RXF 393
UACC-62 = tested on: UACC-62
HT-29 = tested on: HT-29
SF-539 = tested on: SF-539
KM12 = tested on: KM12
HCT-116 = tested on: HCT-116
SW-620 = tested on: SW-620
HCC 2998 = tested on: HCC 2998
MDA-MB-435 = tested on: MDA-MB-435
EKVX = tested on: EKVX
PC-3 = tested on: PC-3
UO-31 = tested on: UO-31
ACHN = tested on: ACHN
SF-268 = tested on: SF-268

Compound	GI50 (T47D)	GI50 (Malme-3M)	GI50 (786-0)	GI50 (Hs-578T)	GI50 (BT-549)	GI50 (HCT-15) [µM]	GI50 (RXF 393)	GI50 (UACC-62)	GI50 (HT-29)	GI50 (SF-539)	GI50 (KM12)	GI50 (HCT-116)	GI50 (SW-620)	GI50 (HCC 2998)	GI50 (MDA-MB-435)	GI50 (EKVX)	GI50 (PC-3)	GI50 (UO-31)	GI50 (ACHN)	GI50 (SF-268)
COc1ccc2cc(C(C)C(=O)N3CCOC3=O)ccc2c1 (stereo not given)	> 100 µM (inactive)	> 100 µM (inactive)	> 100 µM (inactive)	> 100 µM (inactive)	> 100 µM (inactive)	> 100	> 100 µM (inactive)	> 100 µM (inactive)	> 100 µM (inactive)	> 100 µM (inactive)	> 100 µM (inactive)	> 100 µM (inactive)	> 100 µM (inactive)	> 100 µM (inactive)	> 100 µM (inactive)	> 100 µM (inactive)	> 100 µM (inactive)	> 100 µM (inactive)	> 100 µM (inactive)	> 100 µM (inactive)
O=C(CCl)N1CCCCC1C1(c2cc3ccccc3[nH]2)OCCO1 (stereo not given)	7.45 µM (inactive)	4.47 µM (inactive)	0.869 µM (active)	3.3 µM (inactive)	2.05 µM (inactive)	4.82	3.8 µM (inactive)	3.14 µM (inactive)	3.66 µM (inactive)	1.65 µM (inactive)	1.77 µM (inactive)	2.84 µM (inactive)	4.19 µM (inactive)	10.4 µM (inactive)	3.36 µM (inactive)	1.5 µM (inactive)	2.98 µM (inactive)	3.73 µM (inactive)	5 µM (inactive)	3.22 µM (inactive)
C=CCN1C(N)=C(C#N)C(C#N)(C#N)C1CCC (stereo not given)	54.8 µM (inactive)	> 100 µM (inactive)	> 100 µM (inactive)	> 100 µM (inactive)	> 100 µM (inactive)	> 100	> 100 µM (inactive)	> 100 µM (inactive)	> 100 µM (inactive)	> 100 µM (inactive)	> 100 µM (inactive)	> 100 µM (inactive)	> 100 µM (inactive)	> 100 µM (inactive)	> 100 µM (inactive)	47.4 µM (inactive)	> 100 µM (inactive)	75.2 µM (inactive)	> 100 µM (inactive)	> 100 µM (inactive)
c1ccc(-c2c(-c3[nH]c4ccccc4c3-c3ccccc3)[nH]c3ccccc23)cc1	2.53 µM (inactive)	13.7 µM (inactive)	2.07 µM (inactive)	9.38 µM (inactive)	4.56 µM (inactive)	4.32	1.82 µM (inactive)	9.98 µM (inactive)	3.45 µM (inactive)	7.96 µM (inactive)	3.03 µM (inactive)	4.06 µM (inactive)	3.34 µM (inactive)	1.82 µM (inactive)	3.44 µM (inactive)	3.89 µM (inactive)	3.6 µM (inactive)	3.68 µM (inactive)	3.33 µM (inactive)	6.47 µM (inactive)
COc1c2c(cc3c1C(O)N1CC[C@]34[C@H]3O[C@H]3[C@H](OC)C[C@@H]14)OCO2 (stereo not given in full)	> 100 µM (inactive)	71.1 µM (inactive)	> 100 µM (inactive)	> 100 µM (inactive)	> 100 µM (inactive)	67.3	67.5 µM (inactive)	39.3 µM (inactive)	42.8 µM (inactive)	> 100 µM (inactive)	73.1 µM (inactive)	75 µM (inactive)	54.7 µM (inactive)	> 100 µM (inactive)	31.6 µM (inactive)	> 100 µM (inactive)	39.3 µM (inactive)	> 100 µM (inactive)	> 100 µM (inactive)	> 100 µM (inactive)
CC1(c2ccc(Cl)cc2)C=C(c2ccc(Cl)cc2)C(C#N)=C(C(C#N)C#N)N1.CNC (stereo not given)	14.2 µM (inactive)	14.1 µM (inactive)	13.8 µM (inactive)	9.82 µM (inactive)	21.2 µM (inactive)	15.1	18.7 µM (inactive)	14.1 µM (inactive)	16.6 µM (inactive)	19.5 µM (inactive)	17.3 µM (inactive)	14 µM (inactive)	12.7 µM (inactive)	16.3 µM (inactive)	17.5 µM (inactive)	16.6 µM (inactive)	16.6 µM (inactive)	16.4 µM (inactive)	16.6 µM (inactive)	10.7 µM (inactive)
CCN(CC)CCO/N=C1\CC[C@H]2[C@@H]3CCc4cc(OC)ccc4[C@H]3CC[C@]12C	2.79 µM (inactive)	1.82 µM (inactive)	1.59 µM (inactive)	2.31 µM (inactive)	4.56 µM (inactive)	0.489	1.6 µM (inactive)	0.82 µM (active)	0.53 µM (active)	1.97 µM (inactive)	2.01 µM (inactive)	1.44 µM (inactive)	1.72 µM (inactive)	1.71 µM (inactive)	0.632 µM (active)	3.16 µM (inactive)	2.64 µM (inactive)	2.94 µM (inactive)	3.57 µM (inactive)	2.07 µM (inactive)
FC(F)(F)c1ccc2c(c1)nc(Cc1ccc(Cl)c(Cl)c1)n2CC1CCCN2CCCCC12 (stereo not given)	29 µM (inactive)	13.6 µM (inactive)	16.2 µM (inactive)	10.9 µM (inactive)	28.6 µM (inactive)	30.8	23.6 µM (inactive)	15.9 µM (inactive)	11.2 µM (inactive)	18.9 µM (inactive)	24.4 µM (inactive)	14.8 µM (inactive)	34.8 µM (inactive)	8.95 µM (inactive)	30.4 µM (inactive)	21.2 µM (inactive)	30.5 µM (inactive)	0.169 µM (active)	22.8 µM (inactive)	27.8 µM (inactive)
COc1ccc(Oc2ccc3cc4c(cc3c2O)OCO4)c2cc(C)oc12	12.3 µM (inactive)	24.2 µM (inactive)	35.8 µM (inactive)	37.7 µM (inactive)	22.5 µM (inactive)	22.1	15.7 µM (inactive)	35.6 µM (inactive)	23.2 µM (inactive)	20.2 µM (inactive)	28.3 µM (inactive)	26.4 µM (inactive)	27.2 µM (inactive)	23.2 µM (inactive)	22.3 µM (inactive)	28.7 µM (inactive)	24.8 µM (inactive)	29.1 µM (inactive)	35.6 µM (inactive)	36 µM (inactive)
COc1ccc(Nc2nc3ccccc3nc2C(=O)O)cc1	53.6 µM (inactive)	> 100 µM (inactive)	49.1 µM (inactive)	16 µM (inactive)	> 100 µM (inactive)	36.1	> 100 µM (inactive)	> 100 µM (inactive)	> 100 µM (inactive)	> 100 µM (inactive)	26.2 µM (inactive)	58.6 µM (inactive)	37.6 µM (inactive)	3.46 µM (inactive)	> 100 µM (inactive)	54.5 µM (inactive)	> 100 µM (inactive)	40 µM (inactive)	55 µM (inactive)	61.1 µM (inactive)
CC1(C)C(C#N)C1C1=C(N2CCOCC2)[C@]2(C)C(OC(=O)c3ccccc3)CC[C@@H]2C1 (stereo not given in full)	35.5 µM (inactive)	> 100 µM (inactive)	> 100 µM (inactive)	> 100 µM (inactive)	55.1 µM (inactive)	> 100	35.6 µM (inactive)	> 100 µM (inactive)	50.1 µM (inactive)	> 100 µM (inactive)	> 100 µM (inactive)	33.7 µM (inactive)	> 100 µM (inactive)	> 100 µM (inactive)	> 100 µM (inactive)	> 100 µM (inactive)	> 100 µM (inactive)	> 100 µM (inactive)	> 100 µM (inactive)	> 100 µM (inactive)
C=CC(C)(C)c1cc([C@@H]2COc3cc(O)ccc3C2=O)c(O)c(O)c1OC	25.4 µM (inactive)	30.5 µM (inactive)	14.3 µM (inactive)	39 µM (inactive)	18 µM (inactive)	16.5	4.85 µM (inactive)	18.1 µM (inactive)	21.9 µM (inactive)	24.9 µM (inactive)	19.8 µM (inactive)	16.9 µM (inactive)	26.7 µM (inactive)	61.8 µM (inactive)	19.3 µM (inactive)	28.6 µM (inactive)	18.7 µM (inactive)	15.9 µM (inactive)	17.6 µM (inactive)	18.2 µM (inactive)
O=C(CC(=O)Nc1ccccc1Cl)NNC(c1cc(/N=N/c2ccc(Br)cc2)ccc1O)P(O)O (stereo not given)	2.12 µM (inactive)	3.6 µM (inactive)	0.565 µM (active)	> 10 µM (inactive)	2.33 µM (inactive)	0.594	1.34 µM (inactive)	0.964 µM (active)	> 10 µM (inactive)	0.951 µM (active)	2.95 µM (inactive)	0.311 µM (active)	0.647 µM (active)	3.8 µM (inactive)	2.04 µM (inactive)	4.22 µM (inactive)	0.521 µM (active)	0.995 µM (active)	0.813 µM (active)	0.679 µM (active)
[N-]=[N+]=NC1(c2ccccc2)C(=O)c2cccc3c4ccccc4n(c23)C1=O (stereo not given)	> 100 µM (inactive)	> 100 µM (inactive)	> 100 µM (inactive)	> 100 µM (inactive)	> 100 µM (inactive)	> 100	> 100 µM (inactive)	50 µM (inactive)	18.4 µM (inactive)	> 100 µM (inactive)	53.1 µM (inactive)	84.3 µM (inactive)	> 100 µM (inactive)	> 100 µM (inactive)	27.9 µM (inactive)	92.3 µM (inactive)	> 100 µM (inactive)	> 100 µM (inactive)	> 100 µM (inactive)	> 100 µM (inactive)

Source: ChEMBL document CHEMBL1201862, “PubChem BioAssay data set” (2004)
